Laboratory results from ChEMBL document CHEMBL3507680, “University of Dundee, Gates Library screen for HepG2 cell viability”.

assay: Human HepG2 cell viability assay in 384 well format; type: toxicity, cell-based; design: dose 125 nL, time 70.5 hour; concentration not given beside the values; details: HepG2 cells, read-out: Inhibition

SMILES	cytotoxicity at 70.5 h [%]
CS(=O)(=O)NC1CCN(Cc2coc(-c3ccccc3)n2)CC1	-9.14
CS(=O)(=O)NCCCSCc1cccc2cccnc12	-9.28
Cc1nc(C(=O)N(Cc2c(C)nn(C)c2C)C(C)C)cs1	-0.883
Cc1ccc(F)cc1S(=O)(=O)NCc1cccc(C(=O)N2CCCC2)c1	-2.82
CN(Cc1cn2ccccc2n1)C1CCCN(c2cccnn2)C1 (stereo not drawn)	12.5
O=C(c1cc[nH]n1)N1CC[C@@H]2CN(Cc3ccncc3)S(=O)(=O)[C@@H]2CC1	-5.13
CNC(=O)[C@H]1C[C@@H]2CN(C(=O)Nc3ccc(F)cc3)C[C@H]1O2	-0.584
COCC1c2nnn(C)c2CCN1C(=O)c1ccc(OC)c(F)c1 (stereo not drawn)	-7.3
CC(CS(C)(=O)=O)N(C(=O)CCc1ccc(Cl)s1)C1CC1 (stereo not drawn)	-3.37
O=C(CN1CCOc2ccc(Cl)cc21)NCc1ncc[nH]1	-2.35
C=C(C)COc1ccccc1C(=O)NCCc1cc(O)nc(C)n1	-11.9
CC1CC(=O)c2cc(C(=O)N3CCOCC3)c(=O)[nH]c2C1 (stereo not drawn)	-0.268
Cc1ccc(C(=O)CN(C2=NCCCCC2)c2ccccc2)cc1	-23.6
COc1cc(C)ccc1OCC(=O)Nc1ccnc(OCCN(C)C)c1	39.3
Cc1ccc(-c2nc(CN(Cc3cccs3)C3CCS(=O)(=O)C3)cs2)o1 (stereo not drawn)	13.7
Cc1ccc(NC(=O)Nc2c(O)oc3ccccc3c2=O)cc1	4.11
Cc1ccccc1CN1CCN(C(C)c2nc(C3CC3)no2)CC1 (stereo not drawn)	17
CCSc1ccc(C(=O)NCCc2nnc(-c3ccco3)[nH]2)cn1	-6.64
CCn1ccc(-c2cc(NCCCOc3cccc(C)c3)nc(C)n2)n1	-6.25
CC(C)(C)c1n[nH]c(C2CN(Cc3ncc[nH]3)CCO2)n1 (stereo not drawn)	-0.788
CCCc1cc(C(=O)N[C@@H]2CC[C@@H](N3CCOCC3)[C@@H]2O)no1	-5.49
Cc1cc(NC(=O)CN2CCCC2c2noc(C)n2)n(C)n1 (stereo not drawn)	-5.38
Cc1ccc(C(=O)N2CCCC(N)CC2)cc1N1CCNC1=O (stereo not drawn)	-2.27

SMILES	cytotoxicity at 70.5 h [%]
CC(C)(C)c1c[nH]c([C@@H]2COCCN2C2CCCCC2)n1	-0.143
Cc1cnn(CCC(=O)N2CCCN(c3cccnn3)CC2)c1	-2.44
CNC(=O)CS(=O)(=O)Cc1cc(Cl)c2c(c1)OCCCO2	25.7
Cc1nc(CN2CC3(CCN(c4nccs4)C3)CC2=O)cs1 (stereo not drawn)	-1.92
COc1c(C)cnc(CN2CCCC2c2noc(C)n2)c1C (stereo not drawn)	3.95
Cc1csc(NC(=O)[C@@H]2C[C@H]3[C@H](CCN3S(C)(=O)=O)O2)n1	-1.16
CC(Cn1ccnc1)NS(=O)(=O)Cc1ccc(F)cc1 (stereo not drawn)	-2.62
Cc1c(NC(=O)c2ccc(Br)cc2)c(C(=O)N(C)C)nn1C	-6.74
O=C1[C@H]2CN(c3cnccn3)C[C@H]2CN1CC1CC1	-12.5
COc1ccc(C)cc1CC(=O)NS(=O)(=O)c1ccc(C(N)=O)cc1	-6.98
Cc1cc(C2CCCCN2C(=O)CN2C(=O)OC(C)(C)C2=O)no1 (stereo not drawn)	-7.73
Cn1cccc1C1CCCN1C(=O)NCCCn1cccn1 (stereo not drawn)	-7.92
CCC(CNC(=O)COC)Oc1cccc(F)c1 (stereo not drawn)	14.9
CS(=O)(=O)c1ccc(CNC2CCCN(c3cccnn3)C2)cc1 (stereo not drawn)	-6.92
O=C1Nc2ccccc2CC12CCN(CCO)C2 (stereo not drawn)	-6.04
CCn1ncc2c1CCCC2NCc1cc(C)ccc1OC (stereo not drawn)	-12.5
CC(C)CC(C(=O)N1CCCSCC1)N1CCCCC1=O (stereo not drawn)	-3.18
CC(C(=O)NCc1ccc(N2CCCCCC2)nc1)S(C)(=O)=O (stereo not drawn)	-9.13
CCN(CC1CCOCC1)C(=O)Cn1ccccc1=O	-9.29
Cc1nc2cc(-c3nccn3C)nn2c(N2CCCC2)c1C	-0.486
COc1ccc(OC)c(CN2CCC(c3cc(O)nc(C)n3)C2)c1 (stereo not drawn)	22.5
CSCC(C)CNC(=O)N1CCSC(C)(C)C1 (stereo not drawn)	-2.74
O=C(Cn1ccc(=O)cc1)NCc1ccc2sccc2c1	-7.85

SMILES	cytotoxicity at 70.5 h [%]
CCCNC(=O)C1CCN(Cc2csc(C(C)(C)C)n2)CC1	-9.45
c1cc(-c2nnc([C@H]3CCN(C4CCOCC4)C3)o2)ccn1	2.55
Cc1cccc(CN2CCc3[nH]nc(C(=O)N4CCNC(=O)C4)c3C2)n1	-10.5
COC(=O)COn1c(SC(C)C)nc2ccccc2c1=O	-3.63
Cc1ncsc1C(=O)NC1CCN(Cc2ccc(C(F)(F)F)cc2)CC1	26.5
CC(C)(C)c1nc(CN(Cc2cccs2)C2CCS(=O)(=O)C2)no1 (stereo not drawn)	-4.17
Cc1ccc(NC(=O)N(C)Cc2cnn(C)c2)c(C)c1	-10.1
Cc1ccc(-c2nc(C3CCN(C(=O)c4ccn(C)n4)CC3)no2)cn1	-10.5
CC(C)OCc1noc(C2CC=CC2)n1	-6.7
Cc1csc(N2CCN(Cc3cscn3)CC2C)n1 (stereo not drawn)	-4.06
Cc1nc(NC(=O)N[C@H](CO)c2ccccc2)sc1C	-15.6
CN(C)CCN1C(=O)C2(CCN(CC3CC3)CC2)c2ccccc21	-4.59
O=C(CCNc1ncccn1)N1CCN(c2nccs2)CC1	-16.3
Cc1nc(-c2c(-c3ccccc3)ncn2[C@H]2C[C@@H](C(=O)O)N(C)C2)co1	-11.1
COCCC1(C(=O)O)CCCN(Cc2cc3c(cc2Cl)OCO3)C1 (stereo not drawn)	-5.22
Cc1ccc(CN2CCCC3(CCC(=O)N3)CC2)s1 (stereo not drawn)	-7.87
CN(C)[C@@H]1CN(C(=O)c2cc3cccc(F)c3[nH]2)C[C@H]1O	-2.67
CCn1cc(C2CCN(Cc3ccnc(N(C)C)c3)CC2)cn1	-4.12
O=S(=O)(NC1CCC2(CC1)OCCO2)c1cccc(Br)c1	12
O=C(c1cnccn1)N1CCCC(Cn2cc(C3CCCC3)nn2)C1 (stereo not drawn)	-10.8
CCc1nc2c(NCC3COc4c(cccc4OC)C3)ncnc2o1 (stereo not drawn)	-4.9
CCN(CC)c1ccc2ccc(C(=O)N(CCOC)CCOC)cn12	-0.14
CCN(CC)C(=O)CCc1nc(-c2cnn3c(C)cc(C)nc23)no1	-121

SMILES	cytotoxicity at 70.5 h [%]
CN1CCN(Cc2ccc(Cl)cc2)CC1C(=O)O (stereo not drawn)	-6.51
CCc1ccc(CN2CCC(c3ccccc3C(=O)O)C2)nc1 (stereo not drawn)	-13.9
CC(NC(=O)N1CCN(CCc2ccccc2)CC1)c1nncn1C (stereo not drawn)	-11
Cc1nsc(NCc2ccc(CS(=O)(=O)NC(C)C)cc2)n1	-9.39
Fc1ccccc1CO[C@@H]1C[C@H]2CN(c3ncccn3)CCN2C1	4.66
CCCNC(=O)c1cc2c([nH]c1=O)CC(c1cccs1)CC2=O (stereo not drawn)	-19.4
COCC(=O)N1CCCCC1c1nc(C)c2c(n1)N(CC1CC1)C(=O)C2 (stereo not drawn)	-2.8
NC(=O)c1ccc(NC(=O)c2ccncc2Cl)cn1	-4.51
CCN(CC)S(=O)(=O)c1ccc(CCC(=O)NCc2cc(C)on2)cc1	-7.82
O=C(N[C@]12CC1CN(C(=O)c1ccco1)C2)c1ccoc1 (stereo partly drawn)	-7.38
Cc1ccc(N2CCCC(NCc3ccncc3)C2)nn1 (stereo not drawn)	11.6
CN(CC(=O)Nc1ccncc1)CC1CCCN1c1cccnn1 (stereo not drawn)	-11.4
CC(c1c(F)cccc1F)N1CCN(Cc2nccn2C)CC1 (stereo not drawn)	24.5
Cc1cc(CNC(=O)COc2ccccc2F)c(C)o1	-0.958
CCCC(=O)N1CCCC(c2ccccn2)C1 (stereo not drawn)	-1.3
CC(C)n1ccnc1C1CCCN(c2ncccc2C(N)=O)C1 (stereo not drawn)	-0.947
Cc1ccc2oc(C(=O)N3CCCC(c4noc(C)n4)C3)cc2n1 (stereo not drawn)	-5.41
CC(=O)N(Cc1noc(C2CC2)n1)C1CCN(CC(=O)NC2CC2)C1 (stereo not drawn)	-7.63
N#CC1COCCN1S(=O)(=O)c1ccc2c(c1)CCC2 (stereo not drawn)	-8.31
CN(C)C(=O)COCC1CN(Cc2ccco2)Cc2ncn(C)c21 (stereo not drawn)	-0.299
NC(=O)CN(CC(=O)NCc1cc(F)cc(F)c1)C1CCCC1	-10.9
Cc1nc(CN2C[C@@H]3CCCO[C@@H]3[C@H](N(C)C(C)C)C2)cs1	-1.04
CCC(C)NC(=O)c1cc(Br)c2c(c1)OCCO2 (stereo not drawn)	-1.67

SMILES	cytotoxicity at 70.5 h [%]
O=C(NCCO)c1sc2ncccc2c1C1CNCCO1 (stereo not drawn)	-4.56
COc1cc(C(=O)NCC2CCCN(Cc3ccco3)C2)ccn1 (stereo not drawn)	16.1
Cc1c(C)n2c(SCC(=O)N3CCOCC3)nnc2[nH]c1=O	-3.31
O=C(NCc1ccnc(OCC(F)(F)F)c1)NCC1CCCO1 (stereo not drawn)	0.67
COCCNS(=O)(=O)c1cccc2c1CN(C(=O)c1ccoc1)CC2	-10.7
COCCN(C/C=C/c1ccccc1)Cc1ccccn1	6.25
Cc1[nH]c2c(C)ccc(C)c2c1CC(=O)NCCNc1cccnc1	27
O=C(CN1CCCCCC1=O)NC1CCc2nccn2C1 (stereo not drawn)	-8.44
CC(C)c1ccc(C(O)Cn2c(=O)c(C#N)cn(C3CC3)c2=O)cc1 (stereo not drawn)	-3.45
Cc1noc(C)c1CCNc1nccc(CCC(F)(F)F)n1	-8.75
Cc1cc(C(=O)N2CCN(C)CC2)nn1CC(=O)NCc1cccs1	-4.64
CNC(=O)[C@@H](c1ccccc1F)N1CCC[C@H]1C(=O)NC1CCOCC1	-12.5
Cc1ccc(CN2CCCC3(CCCCN3S(C)(=O)=O)C2)s1 (stereo not drawn)	19.2
Cc1cc(C(=O)N2CCC(NC(=O)c3cccnc3)CC2)c(C)o1	-9.02
COC(=O)c1ccc(C2SCC(=O)Nc3c2cnn3C2CCCC2)cc1 (stereo not drawn)	-12.4
CC1CN(Cc2nccn2C)CCN1c1ccc2nncn2n1 (stereo not drawn)	6.8
COc1ccc(-n2nnc(C(=O)NC(C)C)c2C2CC2)cc1	-6.86
O=C(NC[C@H]1OC[C@@H]2CCN(c3ccccn3)C[C@@H]21)c1ccco1	-1.04
CCC1CN(Cc2ccccc2)CCN1Cc1nnc(C2CCC2)o1 (stereo not drawn)	-0.161
COc1cccc(CNCCc2cc(F)cc3c2OCOC3)c1	14.9
CC(C)COCC1CN(Cc2ccsc2)Cc2ncn(C)c21 (stereo not drawn)	-9.98
